Measurements published in US20110118226A1 (priority 2008, published 2011).

What was measured:
[1] = Stability of danazol in analysis medium and receptor phase (3% cetrimide solution); format: physicochemical; conditions: analysis medium (mobile phase) and receptor phase (3% cetrimide solution)
[2] = cited from earlier work

**Q.** With `C#C[C@]1(O)CC[C@H]2[C@@H]3CCC4=Cc5oncc5C[C@]4(C)[C@H]3CC[C@@]21C` [Danazol, (17α)-Pregna-2,4-dien-20-yno[2,3-d]isoxazol-17β-ol] as the compound, how does the “Time for which danazol was stable” value [1] read?
**A.** The value was 30 h.

**Q.** What about the “Bioavailability of oral danazol” value [2] of the same compound?
**A.** Its value is 11%.
